Test results published in patent US20020173551A1 (priority 1998, published 2002).
Structures can show the parent of a compound that is named as a salt.

Tests used:
herpes simplex II = assay: Case report: recurrent buttock herpes simplex II; assay type: in vivo, humans; conditions: Example 6, case two
From the text: The sixth case was patient two, a reporter. […] This was given for recurrent buttock herpes simplex II, This was ceased and after 1 year, the hypertension and renal impairment reverted to normal.

herpes virus = assay: Overall assessment of the case series against other anti-viral agents; assay type: in vivo, humans; conditions: treatment and prevention of infections caused by the herpes virus
From the text: The physician conducting the above trials has reported that the results thus far have been beyond expectation. They are commented that “not only has there been a success from a completely unlikely agent, but there has also been a success beyond that achieved by the well-established anti-viral agents.”

[1] = system: HSV I / herpes labialis (cold sores); assay: Case reports: herpes labialis (cold sores) treated with bupropion; assay type: in vivo, humans
[2] = system: neuronal uptake of dopamine (DA); conditions: cited from earlier work
[3] = system: HSV I / herpes labialis (cold sores); assay: Case reports: herpes labialis (cold sores) treated with bupropion; assay type: in vivo, humans; remark: listed apart in the source
From the text: […] They have approximately 1 episode per month related to menstrual periods. This has been occurring for the last 6 years and has lasted for at least a week of every month. The severity varied according to […] general state of health and stress levels. The outbreaks lasted at least one week and have made a significant impact on their psychological state. They have not been on systemic therapy.
The third case was patient five, a entrepreneur. They have a coffee shop chain. They are thus very visible and they are very self-conscious of even minor blemishes on their face. They have mild herpes labialis (cold sores), which occurs approximately 5 times a year. They have taken intermittent acyelovir and has even considered continuous acyclovir, because of their image.
[…] They had been paying for acyclovir privately, despite the cost, because of their wish to suppress their frequent and unsightly lesions. […] An attack was treated within 24 hours on the two agents.
[…] This involved the nares, upper and lower lips bilaterally. […] Their partner also developed scarlet fever as well. […] It should be noted that this patient is usually very intolerant of medications and tends to vomit easily.
Her normal herpes labialis lasted between 5 and 7 days.

monoamine oxidase = conditions: cited from earlier work
[4] = system: genital Herpes Simplex viral infection; assay: Case reports: recurrent genital herpes treated with bupropion; assay type: in vivo, humans
From the text: There were 5-6 recurrences per year. […] The fourth case was patient one, a student with extensive genital herpes. They have had 4 attacks thus far, which have been treated initially with acyclovir and then later with famciclovix. The normal duration of these attacks on these agents was 5-7 days. They were unable to attend classes and took a further 2 weeks before they felt normal. A big feature of their illness is the severe fatigue that precedes and follows their attacks. […] They had not developed any post-[…] fatigue either. They later used a further 2 day course when they felt tingling.

[5] = system: neuronal uptake of noradrenahne (NA); conditions: cited from earlier work
[6] = Side effects observed in the treated cases; assay type: in vivo, humans
From the text: The sixth case was patient two, a reporter. […] This was given for recurrent buttock herpes simplex II, This was ceased and after 1 year, the hypertension and renal impairment reverted to normal. […] This involved the nares, upper and lower lips bilaterally. Even after topical acyclovir, the course of the illness was 2 weeks of significant outbreak. […] Their partner also developed scarlet fever as well. […] It should be noted that this patient is usually very intolerant of medications and tends to vomit easily.

[7] = Example 1, case gamma, 4 doses of 150 mg over 2 days
[8] = Example 4, case one, 300 mg twice daily for 2 days

CC(=O)OCC(CCn1cnc2cnc(N)nc21)COC(C)=O [Famciclovir]
interval between minor outbreaks (approximately once every) (herpes simplex II; continuous therapy): 2-3 months | suppression of disease (herpes simplex II; continuous therapy): successfully suppressed their disease

CC(NC(C)(C)C)C(=O)c1cccc(Cl)c1 (racemic) [bupropion, (±)-1-(3-chlorophenyl)-2-[(1,1-dimethylethyl)-amino)-1-propanone hydrochloride]
comparison with other anti-viral agents such as acydovir and famciclovir (herpes virus): superior to many other anti-viral agents | time until the lesion had dried out ([1]; Example 8, 150 mg twice daily for 2 days): ≤ 24 h | further time until the lesion was scabbing ([1]; Example 8, 150 mg twice daily for 2 days, after drying out): ≤ 12 h | time to complete resolution (later) ([1]; Example 8, 150 mg twice daily for 2 days, after scabbing): 3 days | eruptions (herpes simplex II; taken at onset of pre-outbreak symptoms): has not had an eruption since | inhibition of neuronal uptake of dopamine [2]: relatively weak inhibitor | complete resolution of lesions (day of outbreak) ([3]; Example 2, case four, HSV I cold sores, 300 mg twice daily for 2 days from day 2 of outbreak): ≤ 3 days | minor recurrence one week later ([3]; Example 2, case four, similar dosage): aborted by a similar dosage within the first day | eruptions ([3]; Example 3, case five, 2 tablets of 150 mg when they feel the tingling): has not had an eruption in the last 3 months | outbreak after tingling of the lip ([3]; Example 5, case beta, 150 mg every 12 hours for 2 days, two episodes): No outbreak of herpes labialis occurred | lesion by day 5 ([3]; Example 7, case alpha): hardly noticeable | time after which the lesion started disappearing ([3]; Example 7, case alpha): 3 days | progression of lesions ([3]; Example 7, case three, within 36 hours of taking 300 mg): did not progress from their initial lesion | inhibition of monoamine oxidase (monoamine oxidase): does not inhibit | time until the attack was aborted ([4]; Example 1, case gamma, first use of bupropion): ≤ 2 days | outcome of an attack about to commence [4, 7]: aborts the attack completely, or reduces it to a small crop of lesions | time to complete healing of the small crop of lesions [4, 7]: ≤ 48 h | recurrence since commencing the regime ([4]; Example 1, case gamma, over one year): There has not been a single significant recurrence | lesions after treatment [4, 8]: lesions had cleared completely | post-viraemia fatigue [4, 8]: had not developed any post-viraemia fatigue | eruptions after a further course at tingling ([4]; Example 4, case one, further 2 day course): did not develop any eruptions | inhibition of neuronal uptake of noradrenaline [5]: relatively weak inhibitor | concurrent scarlet fever ([6]; Example 7, case alpha): did not worsen | side effects ([6]; Example 7, case three, usually very intolerant of medications): No side effects were noticed

Nc1nc2c(ncn2COCCO)c(=O)[nH]1 [acyclovir]
effect of topical therapy ([1]; Example 8, medical receptionist, herpes labialis, topical, in the past): unhelpful | duration of attacks ([3]; Example 3, case five, mild herpes labialis, taken with the tingling): 3 days | severity of attacks ([3]; Example 3, case five, taken with the tingling): barely detectable | lesions during suppressive therapy ([3]; Example 5, case beta, recurrent herpes labialis): breakthrough lesions | course of the illness (significant outbreak) ([3]; Example 7, case three, severe herpes labialis, topical): 2 weeks | effect in aborting the attacks ([4]; Example 1, case gamma): partially effective | duration of the attacks ([4]; Example 1, case gamma, recurrent genital Herpes Simplex, reduced from 2 weeks): 5 to 7 days | adverse effects ([6]; Example 6, case two, given for recurrent buttock herpes simplex II, reverted to normal 1 year after ceasing): developed hypertension and mild renal impairment
